Laboratory results reported in patent publication US20220186188A1, “Method for Obtaining Pancreatic Progenitor Cells and Pancreatic Islet Beta Cells By Means of Differentiation of Human Pluripotent Stem Cells” (Asia Regenerative Medicine, Ltd., priority 2019, published 2022).

Experiments:
[1] = tested on: pancreatic progenitor cells differentiated from human embryonic stem cells; assay: Flow cytometry detection of PDX1 in the pancreatic progenitor cell stage (human embryonic stem cells); format: cell-based; conditions: 2 μM inhibitor in pancreatic progenitor cell medium, 5 days, compared with control group without WNT inhibitor
Procedure: a pancreatic progenitor cell medium was prepared, the medium in step 1) was replaced with the pancreatic progenitor cell medium, and the cells were cultured in a carbon dioxide incubator at 37 degrees Celsius for 5 days, during which the medium was replaced every day, wherein the composition of the pancreatic progenitor cell medium was: with an MCDB131 medium as a basic medium, and the following components at the working concentrations were further included: 0.5% of bovine serum albumin (BSA), 1.5 g/L of sodium bicarbonate, 1×glutamine (GlutaMAX), 10 mM glucose, […], 1×insulin-transferrin-selenium-ethanolamine additive (ITS-X), 50 ng/ml of fibroblast growth factor 7 (KGF), 0.5 μM SANT1 (with smo as an inhibitor target), 100 nM retinoic acid (TTNPB), 500 nM phorbol 12,13-dibutyrate (PDBu), 2 μM ALK inhibitor (K02288), and 2 μM WNT signaling pathway inhibitor XAV-939 (not added in a control group), with the concentrations all being final concentrations. […]

[2] = tested on: pancreatic progenitor cells and pancreatic islet β cells differentiated from human induced pluripotent stem cells; assay: Immunofluorescence detection of PDX1 and PDX1/INS proteins (human induced pluripotent stem cells); format: cell-based
Text: […]

[3] = 2 μM inhibitor in pancreatic progenitor cell stage

Oc1nc(-c2ccc(C(F)(F)F)cc2)nc2c1CSCC2 [XAV-939]
PDX1-positive pancreatic progenitor cells (flow cytometry) [1]: significantly increased | number of insulin INS-positive and PDX1-co-stained pancreatic islet β cells in the mature pancreatic islet β cell stage ([2]; 2 μM inhibitor added in pancreatic progenitor cell stage, immunofluorescence): significantly increased | PDX1-positive pancreatic progenitor cells (immunofluorescence) [2, 3]: significantly increased | cell growth (total cell number by DAPI) [2, 3]: did not affect the cell growth
